Experiments:
[1] = Open-label pilot study, adverse events / safety of MOXDUO, PERCOCET and preceding IV PCA morphine
[2] = Pharmacokinetics after single oral co-administered dose of morphine and oxycodone (about 3:2) in healthy subjects; conditions: for AUC0-∞ (dose adjusted) / Cmax: healthy subjects, n = 18
Description: Values for the observed maximum plasma concentration (Cmax), total area under the plasma concentration-time curve (AUC0-∞) and the time to maximum plasma concentration (Tmax) were determined.

| SMILES | Overall incidence of nausea, pruritus, constipation, and dizziness ([1]; during IV PCA morphine use vs same time period after first dose of study medication) | Subjects with moderate or severe nausea ([1]; while on IV PCA morphine, before study medication) [%] | AUC0-∞ (dose adjusted) ([2]; single oral co-administered dose morphine/oxycodone 3 mg/2 mg) [ng·h/mL/mg] | AUC0-∞ (dose adjusted) ([2]; single oral co-administered dose morphine/oxycodone 12 mg/8 mg) [ng·h/mL/mg] | Tmax ([2]; human, plasma, po) [h] | Cmax ([2]; human, plasma, po, single oral co-administered dose morphine/oxycodone 3 mg/2 mg) [ng/mL] | Cmax ([2]; human, plasma, po, single oral co-administered dose morphine/oxycodone 12 mg/8 mg) [ng/mL] | Dose proportionality of plasma levels ([2]; single-dose combination, 3 mg/2 mg to 12 mg/8 mg dose range, dose-normalized Cmax and AUC0-∞ within 80-125% limits) |
| --- | --- | --- | --- | --- | --- | --- | --- | --- |
| CN1CC[C@]23c4c5ccc(O)c4O[C@H]2[C@@H](O)C=C[C@H]3[C@H]1C5 [Morphine, morphine] | higher | 25 |  |  |  |  |  |  |
| COc1ccc2c3c1O[C@H]1C(=O)CC[C@@]4(O)[C@@H](C2)N(C)CC[C@]314 [Oxycodone, oxycodone] |  |  | 9.62 | 9.62 | 1 | 4.9 | 17.8 | increase linearly in a dose-proportionate manner |

Source: patent US8222267B2 (priority 2009, dated 2012)
